This note sets out measurements from patent US9745346B2, “Antimicrobial peptides and their application” (INFINITEC ACTIVOS S.L., priority 2014, dated 2017).

In one data set the test system is LPS from E. Coli 055:B5. The experiment in a line: LPS-neutralizing activity, chromogenic Limulus Amebocyte Lysate (LAL) test. Format: biochemical. The following applies: LPS 100 pg/mL, 45 min at 37° C., read-out: LPS-neutralization activity IC50 ± SD. Here is the method:
All solutions used in the LPS-neutralizing activity assay were tested to ensure they were endotoxin-free and material was sterilized by heating 3 h at 180° C. LPS from E. Coli 055:B5 and Polymyxin B were purchased from Sigma. LPS-neutralizing activity was measured using the chromogenic Limulus Amebocyte Lysate (LAL) test 40 following the manufacturer's instructions (Cambrex). LAL reagent contains a clottable protein that is activated in the presence of non-neutralized LPS and is an extremely sensitive indicator of the presence of endotoxin. When activated, this enzyme catalyses the release of p-nitroaniline (pNA) from the colorless chromogenic substrate Ac-Ile-Glu-Ala-Arg-pNA. The pNA released was measured photometrically at 405 nm in a Rosys Anthos 2010 microtiter plate reader (Tecnomara AG, Zurich, Switzerland). Peptides were incubated at a range of concentrations (200 to 0.001 μM) with LPS (100 pg/mL) in a 96-well microtiter for 45 min at 37° C. Polymyxin B (10 μg/mL) was used as positive control. LAL (12.5 μL) was added to start the reaction at 37° C. After 16 min, non-neutralized LPS was detected after a 10 min incubation with the chromogenic substrate (25 μ) Acetic acid (25% v/v final concentration) was added to stop the reaction and the absorbance was monitored at 405 nm in a Multiskan Ascent microtiter plate reader (ThermoLabsystems). IC50 (the concentration necessary to in vitro neutralize 50% of LPS) values were determined by a serial dilution assay using 100 pg/mL of LPS and a range of peptide concentrations as mentioned above.

Another data set can be described thus: in vitro. The format is cell-based. The following applies: human. Here is the method: As a safety test for the peptides of the present invention the hemolytic activity was determined by using human erythrocytes (RBCs).
The assays were carried out in 96-well flat-bottom plates against a 0.25% RBC suspension as described elsewhere (Blondelle, S. E., L. R. Simpkins, E. Pérez-Payá, and R. A. Houghten. 1993. Influence of tryptophan residues on melitin's hemolytic activity. Biochim. Biophys. Acta 1202:331-336.).
In brief, peptide mixtures were added to the RBC solution at concentrations that varied from 500 to 4 μg/mL in serial twofold dilutions. Following incubation at 37° C. for 1 hour, the plates were centrifuged at 2.800 rpm for 5 min. The supernatant was separated from the pellet, an its optical density at 414 nm was measured. The hemolytic dose to lyse 50% of RBCs (IC50) was calculated by using the sigmoidal curve-fitting software Graphpad.

Another data set concerns Vibrio angillarum. The following applies: 21 h. Here is the method:
(§1) Minimum inhibitory concentration (MIC) is the lowest concentration of an antimicrobial that will inhibit the growth occurred between time zero and […].
(§2) The MIC of peptides of examples 1, 2 and 3 was determined using gram negative bacteria (Escherichia Coli, Vibrio angillarum, Vibrio ordalii, Enterobacter aerogenes, Aeromonas hydrophila, Vibrio parahemolyticus, Bacillus Oleronius and Salmonella tiphy) and gram positive bacteria (Bacillus megaterium, Micrococcus luteus, Staphylococcus aureus and Staphylococcus epidermidis).
(§3) To initiate the exponential phase of bacterial growth prior to the assay, a sample of each bacteria type was allowed to grow overnight at 37° C. in Mueller-Hinton broth and incubated at 37° C. MRSA (Methicillin Resistant Staphylococcus aureus) was grown at 35° C. in cation-adjusted MH broth.
(§4) A final concentration of 1×10^5 CFU/ml was used in all assays. The assays were carried out in 96-well flat-bottom plates. Bacterial suspension in 2× concentrated broth was added to the different peptides at concentrations that varied from 2.500 to 1 μ/mL in H2O in serial twofold dilutions (Time t0). The plates were then incubated for 21 h (Time tf) at 37° C. […] The concentration necessary to inhibit 50% bacterial growth (IC50) could be by using sigmoidal curve-fitting software.

The next data set deals with E. Coli. The following applies: 21 h. The method, then:
as §1, §2, §3, §4

In data set [1] the test system is Staphylococcus epidermidis. As to conditions: 21 h. The method, then:
as §1, §2, §3, §4

Another data set concerns Micrococcus luteus. As to conditions: 21 h. Here is the method:
as §1, §2, §3, §4

In another data set the test system is Bacillus megaterium. As to conditions: 21 h. Here is the method: as §1, §2, §3, §4
A further data set deals with Salmonella tiphy. As to conditions: 1×10^5 CFU/ml, 21 h at 37° C., optical density at 620 nm. The method, then: as §1, §2, §3, §4
In the next data set the test system is Bacillus oleronius. The following applies: 21 h. Here is the method:
as §1, §2, §3, §4

For another data set, the system named is Staphylococcus aureus. As to conditions: 21 h. Here is the method:
as §1, §2, §3, §4

The next data set deals with Enterobacter hydrophila. The following applies: 21 h. Here is the method: as §1, §2, §3, §4
The test system of another data set is Vibro ordalii. As to conditions: 21 h. Here is the method: as §1, §2, §3, §4
The subject of another data set is Neurospora crassa. Format: cell-based. Here is the method: (§5) For this essay, diluted spores kept at −80° C. were used (fresh ones in the case of de Saprolegnia sp.), 1×10^4 spores/ml at the specific media for every fungi. 10 μg/ml of tetracycline were added to avoid bacterial action. […] of peptide solution plus […] of spore solution alongside the adequated media are added to a 96 wells microplaque. As a positive control a culture of the spores at the same concentration than the assay but without peptide. The MICs were defined as the lowest concentrations of peptides at which total inhibition of growth is observed and no change in optical density at 595 nm occurred between the measures obtained at t0 and tf.

The subject of another data set is Fusarium oxysporum. The format is cell-based. Here is the method: as §5
Another data set concerns Saprolegnia sp. The format is cell-based. Here is the method:
as §5

Converted amounts (≈) assume the structure as drawn. *1 amine or outer side, *2 acyl side, *3 side chain or, on linkers, in order; H or OH if unused. Where a SMILES comes first, the peptide text is derived from it. The star is where a group is joined. NH(CH2)3(OCH2CH2)2O(CH2)3NH = C(CN[*:1])COCCOCCOCCCN[*:2]; Palmitoyl = CCCCCCCCCCCCCCCC(=O)* Where only a bound is given, the exact number is not on record here.

For KWKAQK [compound 5, Ac-KWKAQK-NH2], in the data set on LPS from E. Coli 055:B5, the 50% inhibitory concentration (IC50) (as a rule, the point on the concentration scale where inhibition reaches its midpoint) is 47 ± 1.1 µM.

In the case of `CCCCCCCCCCCCCCCC(=O)N[C@@H](CCCCN)C(=O)N[C@@H](C)C(=O)N[C@@H](CCC(N)=O)C(=O)N[C@@H](CCCCN)C(=O)N[C@@H](CCCNC(=N)N)C(=O)N[C@@H](Cc1ccccc1)C(=O)NCCCOCCOCCOCCCN` [Example 3, Palm-KAQKRF-NH—(CH2)3—(OCH2CH2)3—CH2—NH2] (Palmitoyl-KAQKRF-{NH(CH2)3(OCH2CH2)2O(CH2)3NH}), the HC50 at 1 hour in “in vitro” was > 500 µg/mL. In the data set on Vibrio angillarum, the “Gram negative bacteria MIC, Vibrio angillarum” value was 30.0 µg/mL. In addition, in the data set with E. Coli, the “Gram negative bacteria MIC, E. Coli” value turned out to be 5.5 µg/mL. Moreover, the “Gram positive bacteria MIC, Staphylococcus epidermidis” value in [1] was found to be 5.8 µg/mL. In addition, in the data set with Micrococcus luteus, the “Gram positive bacteria MIC, Micrococcus luteus” value was 5.5 µg/mL. Moreover, the “Gram positive bacteria MIC, Bacillus megaterium” value with Bacillus megaterium is 12.1 µg/mL. Besides, in the data set with Salmonella tiphy, the “Gram negative bacteria MIC, Salmonella tiphy” value is 5.8 µg/mL. In addition, the “Gram negative bacteria MIC, Bacillus oleronius” value in the data set with Bacillus oleronius is 8.0 µg/mL. The “Gram positive bacteria MIC, Staphylococcus aureus” value with Staphylococcus aureus came to 5.5 µg/mL. In addition, the “Gram negative bacteria MIC, Enterobacter hydrophila” value with Enterobacter hydrophila was found to be 11.6 µg/mL. For the same compound, the “Gram negative bacteria MIC, Vibro ordalii” value in the data set on Vibro ordalii came to 8.2 µg/mL. The “MIC, Neurospora crassa” value against Neurospora crassa is 0.3 µg/mL (≈ 0.246 µM). For the same compound, the “MIC, Fusarium oxysporum” value against Fusarium oxysporum is 0.4 µg/mL (≈ 0.329 µM). In the data set with Saprolegnia sp, the “MIC, Saprolegnia sp” value is 0.1 µg/mL (≈ 0.0821 µM).

In the case of KISGKW [compound 3, Ac-KISGKW-NH2], the IC50 in the data set with LPS from E. Coli 055:B5 amounted to 96 ± 1.1 µM.

Regarding AQKRFL [compound 6, Ac-AQKRFL-NH2], the IC50 in the data set on LPS from E. Coli 055:B5 was determined as 46 ± 1.1 µM.

With `CC(=O)N[C@@H](CCCCN)C(=O)N[C@@H](C)C(=O)N[C@@H](CCC(N)=O)C(=O)N[C@@H](CCCCN)C(=O)N[C@@H](CCCNC(=N)N)C(=O)N[C@@H](Cc1ccccc1)C(N)=O` [Example 1, Ac-KAQKRF-NH2] (Ac-KAQKRF-NH2), in the data set “in vitro”, the HC50 at 1 hour was > 500 µg/mL. In addition, the “Gram negative bacteria MIC, Vibrio angillarum” value with Vibrio angillarum was 31.2 µg/mL. Besides, the “Gram negative bacteria MIC, E. Coli” value with E. Coli was found to be 10.8 µg/mL. Moreover, the “Gram positive bacteria MIC, Staphylococcus epidermidis” value in data set [1] was 11.4 µg/mL. In addition, the “Gram positive bacteria MIC, Micrococcus luteus” value with Micrococcus luteus worked out at 6.0 µg/mL. In the data set with Bacillus megaterium, the “Gram positive bacteria MIC, Bacillus megaterium” value is 13.7 µg/mL. Besides, in the data set on Salmonella tiphy, the “Gram negative bacteria MIC, Salmonella tiphy” value was determined as 11.7 µg/mL. In the data set on Bacillus oleronius, the “Gram negative bacteria MIC, Bacillus oleronius” value was 11.9 µg/mL. For the same compound, the “Gram positive bacteria MIC, Staphylococcus aureus” value with Staphylococcus aureus worked out at 11.7 µg/mL. Moreover, in the data set with Enterobacter hydrophila, the “Gram negative bacteria MIC, Enterobacter hydrophila” value was 14.2 µg/mL. The “Gram negative bacteria MIC, Vibro ordalii” value with Vibro ordalii was found to be 10.2 µg/mL. In the data set on Neurospora crassa, the “MIC, Neurospora crassa” value was determined as 0.9 µg/mL (≈ 1.1 µM). In addition, the “MIC, Fusarium oxysporum” value in the data set on Fusarium oxysporum came to 0.9 µg/mL (≈ 1.1 µM). Besides, the “MIC, Saprolegnia sp” value in the data set on Saprolegnia sp came out at 0.2 µg/mL (≈ 0.245 µM).

Regarding “IKISGKWKAQKRFLKM [compound 1, Ac-IKISGKWKAQKRFLKM-NH2]”, the IC50 in the data set on LPS from E. Coli 055:B5 was 34 ± 1.3 µM.

Consider IKISGK [compound 2, Ac-IKISGK-NH2], for which the IC50 with LPS from E. Coli 055:B5 amounted to 105 ± 1.2 µM.

Regarding SGKWKA [compound 4, Ac-SGKWKA-NH2], the IC50 with LPS from E. Coli 055:B5 is 85 ± 1.4 µM.

Take `CCCCCCCCCCCCCCCC(=O)N[C@@H](CCCCN)C(=O)N[C@@H](C)C(=O)N[C@@H](CCC(N)=O)C(=O)N[C@@H](CCCCN)C(=O)N[C@@H](CCCNC(=N)N)C(=O)N[C@@H](Cc1ccccc1)C(N)=O` [Example 2, Palm-KAQKRF-NH2] (Palmitoyl-KAQKRF-NH2): in the data set “in vitro”, the HC50 at 1 hour is > 500 µg/mL. Moreover, the “Gram negative bacteria MIC, Vibrio angillarum” value in the data set on Vibrio angillarum came to 31.0 µg/mL. The “Gram negative bacteria MIC, E. Coli” value with E. Coli stood at 5.6 µg/mL. Also, in [1], the “Gram positive bacteria MIC, Staphylococcus epidermidis” value was 5.6 µg/mL. Moreover, the “Gram positive bacteria MIC, Micrococcus luteus” value in the data set on Micrococcus luteus was determined as 5.6 µg/mL. In addition, the “Gram positive bacteria MIC, Bacillus megaterium” value in the data set with Bacillus megaterium is 12.3 µg/mL. For the same compound, the “Gram negative bacteria MIC, Salmonella tiphy” value in the data set with Salmonella tiphy was 6.1 µg/mL. Moreover, the “Gram negative bacteria MIC, Bacillus oleronius” value in the data set on Bacillus oleronius came out at 9.7 µg/mL. Further, the “Gram positive bacteria MIC, Staphylococcus aureus” value in the data set on Staphylococcus aureus came to 5.7 µg/mL. The “Gram negative bacteria MIC, Enterobacter hydrophila” value in the data set with Enterobacter hydrophila is 11.3 µg/mL. Moreover, the “Gram negative bacteria MIC, Vibro ordalii” value with Vibro ordalii amounted to 7.4 µg/mL. Moreover, the “MIC, Neurospora crassa” value with Neurospora crassa worked out at 0.2 µg/mL (≈ 0.197 µM). Further, the “MIC, Fusarium oxysporum” value in the data set with Fusarium oxysporum was determined as 0.5 µg/mL (≈ 0.493 µM). The “MIC, Saprolegnia sp” value with Saprolegnia sp came to 0.1 µg/mL (≈ 0.0986 µM).
